Experiment [1] relates to FMRP-associated APP mRNA in WT SN. The experiment in a line: FMRP immunoprecipitation and RTqPCR of associated APP mRNA in synaptoneurosomes. The class given is cell-based, mouse. How it is done: SNs were prepared from WT and Fmr-1 KO mouse cortical tissue (Dunkley et al., 1988, Brain Res 441: 59-71; Bagni et al., 2000, J Neuorsci 20: RC76). Briefly, mouse pups aged 14-17 d were killed by carbon dioxide asphyxiation followed by removal of the brain cortices. The cortices were washed in ice-cold gradient medium (GM buffer: 0.25 M sucrose, 5 mM Tris (pH 7.5), and 0.1 mM EDTA), transferred to a glass dounce homogenizer containing ice-cold GM buffer, and gently homogenized with five strokes of the loose pestle followed by five strokes of the tight pestle. The homogenate was spun at 1000 g for 10 min at 4° C. in round-bottom tubes to pellet cellular debris and nuclei. […] The protein concentration of the SNs was determined by Bradford assay and ranged from 200-500 ng/μl. […]
SN lysates were precleared with protein A magnetic beads and immunoprecipitated with 10 μl RNasin, 10 μg 7G1-1 antiFMRP antibody (or in the absence of antibody as a control), and 100 μl packed fresh protein A magnetic beads for 3 h at 4° C. […] The final pellet was suspended in DEPC-treated water, solubilized 10 min at 60° C., and reverse transcribed with Qiagen Omniscript and random nonamer primer (60 min at 37° C., 5 min at 93° C.). cDNA produced in this reaction was diluted 5-fold and analyzed for APP by qPCR as described immediately above. […]
In general terms: Real-time PCR tracks product formation cycle by cycle.

Experiment [2] relates to APP levels in WT and Fmr-1 KO SN. The experiment in a line: Western blot of steady-state APP levels in synaptoneurosomes. The class given is cell-based, mouse. How it is done:
FIG. 3 is a result from western blot analysis illustrating differential regulation of APP levels in WT and KO SN. Western blots of WT (top panel) and KO (bottom panel) SN treated in the presence or absence of DHPG (at 5, 10 and 20 min of incubation) were probed with anti-APP and anti-β-actin (control) antibodies.
Western blot analysis. Aliquots of SNs were collected at 5, 10, and 20 min after DHPG treatment, quenched with an equal volume of 2×SDS sample buffer (8% SDS, 24% glycerol, 100 mM Tris (pH 6.8), 4% β-mercaptoethanol, 0.02% bromophenol blue, 2% Triton X-100, 2% deoxycholate, 2% NP-40 alternative, and 2% sarkosyl) and boiled for 5 min prior to analysis by 12% SDS-PAGE. The separated proteins were transferred to a 0.45 μm nitrocellulose membrane in Towbin buffer containing 20% methanol with a Criterion Blotter (Bio-Rad, http://www.bio-rad.com; 100 V, 4° C., 75 min). The membranes were blocked in 5% nonfat dry milk and hybridized with anti-rabbit APP antibody (dilution, 1 μg/ml) and anti-mouse β-actin antibody (dilution, 1:20,000) followed by hybridization with anti-rabbit or anti-mouse HRP-conjugated secondary antibodies (dilution, 1:2000). […]
In order to assess changes in steady-state APP levels, rather than new protein synthesis, APP was measured in WT and Fmr-1 KO SN in response to DHPG by western blot analysis (FIG. 3). […]

In the next experiment the target is mGluR5 (Homo sapiens, UniProt P41594). As to conditions: shared allosteric modulatory site; cited from earlier work.
The subject of experiment [3] is audiogenic seizures in Fmr-1 KO mice. The following applies: intraperitoneal injections; cited from earlier work.
Experiment [4] relates to anxiety phenotype in Fmr-1 KO mice. The following applies: intraperitoneal injections; cited from earlier work.

Where only a bound is given, the exact number is not on record here.

Sequence of mGluR5 (P41594 21-1212): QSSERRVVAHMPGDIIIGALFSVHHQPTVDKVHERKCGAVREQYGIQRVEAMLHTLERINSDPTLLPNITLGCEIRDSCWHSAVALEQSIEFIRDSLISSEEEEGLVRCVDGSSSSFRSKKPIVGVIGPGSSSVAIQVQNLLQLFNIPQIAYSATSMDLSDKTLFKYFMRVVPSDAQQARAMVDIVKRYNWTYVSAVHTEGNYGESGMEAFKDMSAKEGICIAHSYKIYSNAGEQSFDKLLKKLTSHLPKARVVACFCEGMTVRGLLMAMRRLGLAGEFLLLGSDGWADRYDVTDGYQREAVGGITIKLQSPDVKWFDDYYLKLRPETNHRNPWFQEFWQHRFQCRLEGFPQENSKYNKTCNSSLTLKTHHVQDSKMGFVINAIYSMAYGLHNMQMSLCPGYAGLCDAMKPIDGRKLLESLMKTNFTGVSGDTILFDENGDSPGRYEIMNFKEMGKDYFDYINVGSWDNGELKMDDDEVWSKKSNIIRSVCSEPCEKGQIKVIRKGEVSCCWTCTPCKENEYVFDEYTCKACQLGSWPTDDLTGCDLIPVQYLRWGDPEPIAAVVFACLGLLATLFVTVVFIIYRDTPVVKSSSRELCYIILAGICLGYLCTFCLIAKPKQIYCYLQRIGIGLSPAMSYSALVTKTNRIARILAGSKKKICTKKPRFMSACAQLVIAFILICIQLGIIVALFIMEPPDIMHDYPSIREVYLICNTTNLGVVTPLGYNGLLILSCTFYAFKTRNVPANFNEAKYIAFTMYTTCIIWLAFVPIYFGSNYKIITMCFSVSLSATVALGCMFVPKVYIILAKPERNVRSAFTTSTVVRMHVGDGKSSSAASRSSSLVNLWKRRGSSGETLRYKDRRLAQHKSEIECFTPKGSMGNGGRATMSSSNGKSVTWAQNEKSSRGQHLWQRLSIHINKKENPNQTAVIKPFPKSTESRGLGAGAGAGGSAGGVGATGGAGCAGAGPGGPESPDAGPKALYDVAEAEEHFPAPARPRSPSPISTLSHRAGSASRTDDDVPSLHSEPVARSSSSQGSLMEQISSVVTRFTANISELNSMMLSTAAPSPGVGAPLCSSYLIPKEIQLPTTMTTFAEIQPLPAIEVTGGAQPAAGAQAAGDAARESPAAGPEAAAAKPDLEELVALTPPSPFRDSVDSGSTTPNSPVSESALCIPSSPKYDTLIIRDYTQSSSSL

`N[C@@H](C(=O)O)c1cc(O)cc(O)c1` (racemic) [DHPG, (R,S)-3,5-dihydroxyphenylglycine]: the “time to loss of APP mRNA-FMRP complex” value in experiment [1] (WT SN contacted with DHPG) is at most 5 min. For the same compound, the “difference in FMRP-associated APP mRNA” value in experiment [1] (WT SN, untreated vs 100 μM DHPG, 60 min) is reported as above 60 fold. Besides, the “increase in total APP levels” value in experiment [2] (Fmr-1 KO SN, DHPG) is recorded as “completely absent”; in experiment [2] (WT SN, within 5 min of DHPG, n=3), 1.6 fold.
`Cc1cccc(C#Cc2ccccc2)n1` [MPEP, 2-methyl-6-(phenylethynyl)pyridine]: at mGluR5, the mGluR5 antagonist character entry was “potent and highly selective noncompetitive antagonists”. Also, in experiment [3], the “effect on audiogenic seizures” value is recorded as “reduce”. Further, the “effect on anxiety phenotype” value in experiment [4] is recorded as “reduce”.

Values taken from patent US20130149721A1, “Methods for Inhibiting Amyloid Precursor Protein and Beta-Amyloid Production and Accumulation” (WISCONSIN ALUMNI RESEARCH FOUNDATION, priority 2008, published 2013).
